The target in the test is T1, G9a (Homo sapiens, UniProt Q96KQ7).
T1 sequence (Q96KQ7 1-1210): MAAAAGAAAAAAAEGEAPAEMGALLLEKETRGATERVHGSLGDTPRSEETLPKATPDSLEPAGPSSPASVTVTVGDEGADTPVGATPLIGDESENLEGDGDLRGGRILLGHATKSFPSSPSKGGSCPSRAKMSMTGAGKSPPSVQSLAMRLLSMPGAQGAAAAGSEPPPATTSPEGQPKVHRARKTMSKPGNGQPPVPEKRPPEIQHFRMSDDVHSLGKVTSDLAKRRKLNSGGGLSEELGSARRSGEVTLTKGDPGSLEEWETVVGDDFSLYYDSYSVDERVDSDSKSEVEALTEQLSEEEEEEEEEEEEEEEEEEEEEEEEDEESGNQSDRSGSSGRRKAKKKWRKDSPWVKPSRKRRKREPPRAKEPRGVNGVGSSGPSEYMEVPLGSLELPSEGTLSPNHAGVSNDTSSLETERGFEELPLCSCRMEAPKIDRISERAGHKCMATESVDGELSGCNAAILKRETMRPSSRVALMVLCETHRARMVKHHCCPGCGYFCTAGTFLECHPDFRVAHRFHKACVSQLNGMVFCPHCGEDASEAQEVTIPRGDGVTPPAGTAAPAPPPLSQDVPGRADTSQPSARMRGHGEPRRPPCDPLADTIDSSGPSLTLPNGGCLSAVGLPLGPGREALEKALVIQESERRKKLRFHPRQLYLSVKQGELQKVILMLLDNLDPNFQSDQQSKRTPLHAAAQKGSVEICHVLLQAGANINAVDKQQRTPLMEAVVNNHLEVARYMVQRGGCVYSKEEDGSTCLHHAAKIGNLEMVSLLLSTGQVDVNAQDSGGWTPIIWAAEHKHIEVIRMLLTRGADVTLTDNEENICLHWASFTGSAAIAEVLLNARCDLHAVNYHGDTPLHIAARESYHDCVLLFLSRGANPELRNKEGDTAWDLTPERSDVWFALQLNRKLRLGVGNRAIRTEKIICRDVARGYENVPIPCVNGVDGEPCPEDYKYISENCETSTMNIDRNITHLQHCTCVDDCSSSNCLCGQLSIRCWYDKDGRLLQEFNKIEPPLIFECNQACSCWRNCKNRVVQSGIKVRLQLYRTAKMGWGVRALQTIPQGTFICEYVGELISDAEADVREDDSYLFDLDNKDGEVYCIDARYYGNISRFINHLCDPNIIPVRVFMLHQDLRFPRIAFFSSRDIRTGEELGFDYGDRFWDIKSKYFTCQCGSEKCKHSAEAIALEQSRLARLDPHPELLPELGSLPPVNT
As to the kind of experiment: G9a AlphaLISA enzymatic activity assay. It counts as biochemical. To be noted: 0.15 nM G9a, 15 uM S-adenosyl-methionine, 100 nM biotinylated histone 3 peptide (1-21), 1 hour at room temperature; read-out: G9a in (uM) (IC50, concentration that produced 50% inhibition). The essentials:
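Human G9a (0.15 nM) methylated 100 nM biotinylated histone H3(1-21) peptide with 15 uM SAM in Tris-HCl pH9 buffer with NaCl, Tween-20 and DTT, 1 h at room temperature. H3K9me2 was detected by AlphaLISA acceptor/streptavidin donor beads (20 ug/mL each); IC50 from percent inhibition across compound dilutions.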
(In general: Alpha assays give light when donor and acceptor beads are brought close together.)

Structures can show the parent of a compound that is named as a salt.

As for `COc1cc2c3c(c(NCC(C)C)nc2cc1OCCCN1CCCC1)CCC3` [Example 103, 8-methoxy-N-(2-methylpropyl)-7-[3-(pyrrolidin-1-yl)propoxy]-1H,2H,3H-cyclopenta[c]quinolin-4-amine trifluoroacetate], the IC50 is 0.027 µM. The same measure for `CCCNc1nc2cc(OCCCN3CCCC3)c(OC)cc2c2c1CCC2` [Example 104, 8-methoxy-N-propyl-7-[3-(pyrrolidin-1-yl)propoxy]-1H,2H,3H-cyclopenta[c]quinolin-4-amine trifluoroacetate]: 0.02 µM; for `COc1cc2c3c(c(NC4CC4)nc2cc1OCCCN1CCCC1)CCC3` [Example 105, N-cyclopropyl-8-methoxy-7-[3-(pyrrolidin-1-yl)propoxy]-1H,2H,3H-cyclopenta[c]quinolin-4-amine trifluoroacetate]: 0.021 µM. In the case of `CCNc1nc2cc(OCCCN3CCCC3)c(OC)cc2c2c1CCC2` [Example 106, N-ethyl-8-methoxy-7-[3-(pyrrolidin-1-yl)propoxy]-1H,2H,3H-cyclopenta[c]quinolin-4-amine trifluoroacetate], the IC50 was 0.013 µM. On to `COc1cc2c3c(c(NC4CCCCC4)nc2cc1OCCCN1CCCC1)CCC3` [Example 107, N-cyclohexyl-8-methoxy-7-[3-(pyrrolidin-1-yl)propoxy]-1H,2H,3H-cyclopenta[c]quinolin-4-amine trifluoroacetate], for which the IC50 was 0.016 µM. Turning to `COc1cc2c3c(c(NCC4CC4)nc2cc1OCCCN1CCCC1)CCC3` [Example 108, N-(cyclopropylmethyl)-8-methoxy-7-[3-(pyrrolidin-1-yl)propoxy]-1H,2H,3H-cyclopenta[c]quinolin-4-amine trifluoroacetate], the IC50 is 0.037 µM. The same measure for `COc1cc2c3c(c(C4CCCC4)nc2cc1OCCCN1CCCC1)CCC3` [Example 109, 1-[3-({4-cyclopentyl-8-methoxy-1H,2H,3H-cyclopenta[c]quinolin-7-yl}oxy)propyl]pyrrolidine formate]: 0.5 µM. For `COc1cc2c3c(c(C4CCCCC4)nc2cc1OCCCN1CCCC1)CCC3` [Example 110, 1-[3-({4-cyclohexyl-8-methoxy-1H,2H,3H-cyclopenta[c]quinolin-7-yl}oxy)propyl]pyrrolidine trifluoroacetate], the IC50 was 1.4 µM. Consider `COc1cc2c3c(c(-c4ccccc4)nc2cc1OCCCN1CCCC1)CCC3` [Example 111, 1-[3-({8-methoxy-4-phenyl-1H,2H,3H-cyclopenta[c]quinolin-7-yl}oxy)propyl]pyrrolidine formate], for which the IC50 is 4.9 µM. In the case of `COc1cc2c3c(c(NC(C)C)nc2cc1OCCCN1CCOCC1)CCC3` [Example 112, 8-methoxy-7-[3-(morpholin-4-yl)propoxy]-N-(propan-2-yl)-1H,2H,3H-cyclopenta[c]quinolin-4-amine trifluoroacetate] it was over 10 µM; in that of `COc1cc2c3c(c(C4CCCC4)nc2cc1OCCCN1CCCC1)CC(C)(C)N3` [Example 113, 1-[3-({4-cyclopentyl-8-methoxy-2,2-dimethyl-1H,2H,3H-pyrrolo[3,2-c]quinolin-7-yl}oxy)propyl]pyrrolidine hydrochloride], 0.006 µM.

Consider `COc1cc2c3c(c(-c4ccccc4)nc2cc1OCCCN1CCCC1)CC(C)(C)N3` [Example 114, 1-[3-({8-methoxy-2,2-dimethyl-4-phenyl-1H,2H,3H-pyrrolo[3,2-c]quinolin-7-yl}oxy)propyl]pyrrolidine formate], for which the IC50 turned out to be 0.17 µM. Take `COc1ccc(CNc2nc3cc(OCCCN4CCCC4)c(OC)cc3c3c2CCC3)c(OC)c1` [Example 115, N-[(2,4-dimethoxyphenyl)methyl]-8-methoxy-7-[3-(pyrrolidin-1-yl)propoxy]-1H,2H,3H-cyclopenta[c]quinolin-4-amine formate]: the IC50 worked out at 0.009 µM.

For the compound `COc1cc2c3c(c(N)nc2cc1OCCCN1CCCC1)CCC3` [Example 116, 8-methoxy-7-[3-(pyrrolidin-1-yl)propoxy]-1H,2H,3H-cyclopenta[c]quinolin-4-amine formate], the IC50 worked out at 0.006 µM. The same measure for `COc1ccc(CNc2nc3cc(OCCCN4CCCC4)c(OC)cc3c3c2CC(C)(C)C3)c(OC)c1` [Example 117, N-[(2,4-dimethoxyphenyl)methyl]-8-methoxy-2,2-dimethyl-7-[3-(pyrrolidin-1-yl)propoxy]-1H,2H,3H-cyclopenta[c]quinolin-4-amine formate]: 0.36 µM; for `COc1cc2c3c(c(N)nc2cc1OCCCN1CCCC1)CC(C)(C)C3` [Example 118, 8-methoxy-2,2-dimethyl-7-[3-(pyrrolidin-1-yl)propoxy]-1H,2H,3H-cyclopenta[c]quinolin-4-amine formate]: 0.018 µM. The same measure for `COc1cc2c3c(c(NCCC#N)nc2cc1OCCCN1CCCC1)CCC3` [Example 119, 3-({8-methoxy-7-[3-(pyrrolidin-1-yl)propoxy]-1H,2H,3H-cyclopenta[c]quinolin-4-yl}amino)propanenitrile formate]: 0.11 µM; for `COc1cc2c3c(c(NCCSC)nc2cc1OCCCN1CCCC1)CCC3` [Example 120, 8-methoxy-N-[2-(methylsulfanyl)ethyl]-7-[3-(pyrrolidin-1-yl)propoxy]-1H,2H,3H-cyclopenta[c]quinolin-4-amine formate]: 0.075 µM. Turning to `COc1cc2c3c(c(N[C@H]4CCCC[C@@H]4O)nc2cc1OCCCN1CCCC1)CCC3` [Example 122, (1S,2S)-2-({8-methoxy-7-[3-(pyrrolidin-1-yl)propoxy]-1H,2H,3H-cyclopenta[c]quinolin-4-yl}amino)cyclohexan-1-ol formate], the IC50 turned out to be 0.043 µM. The same measure for `COc1cc2c3c(c(N[C@H]4CC[C@H](O)CC4)nc2cc1OCCCN1CCCC1)CCC3` [Example 123, (1R,4R)-4-({8-methoxy-7-[3-(pyrrolidin-1-yl)propoxy]-1H,2H,3H-cyclopenta[c]quinolin-4-yl}amino)cyclohexan-1-ol formate]: 0.17 µM; for `COc1cc2c3c(c(N[C@H]4CCC[C@@H]4O)nc2cc1OCCCN1CCCC1)CCC3` [Example 124, (1S,25)-2-({8-methoxy-7-[3-(pyrrolidin-1-yl)propoxy]-1H,2H,3H-cyclopenta[c]quinolin-4-yl}amino)cyclopentan-1-ol formate]: 4.7 µM; for `COc1cc2c3c(c(NC4CCC(O)C4)nc2cc1OCCCN1CCCC1)CCC3` (stereo not shown) [Example 126, 3-({8-methoxy-7-[3-(pyrrolidin-1-yl)propoxy]-1H,2H,3H-cyclopenta[c]quinolin-4-yl}amino)cyclopentan-1-ol formate]: 0.15 µM.
